Source: patent publication US12139499B2, “Heteroaryl compounds for treating Huntington's disease” (PTC THERAPEUTICS, INC., priority 2018, dated 2024)

System: Endogenous Huntingtin Protein
Experiment: Endogenous Huntingtin Protein Assay (ELISA-based MSD electrochemiluminescence)
Type: cell-based
Conditions: Table 1
Procedure, shortened: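 Huntingtin was captured overnight at 4 °C on plates coated with 1 μg/mL MW1 (polyQ-expanded) or MAB2166 antibody and BSA-blocked. Detection used a rabbit monoclonal and then a SULFO-TAG goat anti-rabbit antibody (0.25 μg/mL, 1 h each, room temperature). Signal was read by electrochemiluminescence.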

Row | SMILES | IC50 [nM]
1 | CN(c1nc2cnc(-c3cc(C#N)c4nn(C)cc4c3)cc2s1)C1CC2CCCC(C1)N2C (stereo not drawn) [Compound 272, 2-methyl-5-{2-[methyl(9-methyl-9-azabicyclo[3.3.1]non-3-yl)amino][1,3]thiazolo[4,5-c]pyridin-6-yl}-2H-indazole-7-carbonitrile] | 100 to 500
2 | CN(c1nc2cnc(-c3cc(F)c4nn(C)cc4c3)cc2s1)C1CC2CCCC(C1)N2C (stereo not drawn) [Compound 273, 6-(7-fluoro-2-methyl-2H-indazol-5-yl)-N-methyl-N-(9-methyl-9-azabicyclo[3.3.1]non-3-yl)[1,3]thiazolo[4,5-c]pyridin-2-amine] | 500 to 1000
3 | CN(c1nc2ncc(-c3ccc(-c4cn[nH]c4)cc3O)nc2s1)C1CCNCC1 [Compound 274, 2-{2-[methyl(piperidin-4-yl)amino][1,3]thiazolo[4,5-b]pyrazin-6-yl}-5-(1H-pyrazol-yl)phenol] | ≤ 100
4 | Cc1nc2c(C#N)cc(-c3ncc4nc(N(C)C5CC(C)(C)NC(C)(C)C5)sc4n3)cc2o1 [Compound 275, 2-methyl-6-{2-[methyl(2,2,6,6-tetramethylpiperidin-4-yl)amino][1,3]thiazolo[5,4-d]pyrimidin-5-yl}-1,3-benzoxazole-4-carbonitrile] | ≤ 100
5 | Cc1cn2cc(-c3ccc4nc(N(C)C5CC6CCC(C5)N6)sc4n3)cc(C#N)c2n1 (stereo not drawn) [Compound 276, 6-{2-[(3-exo)-8-azabicyclo[3.2.1]oct-3-yl(methyl)amino][1,3]thiazolo[5,4-b]pyridin-5-yl}-2-methylimidazo[1,2-a]pyridine-8-carbonitrile] | ≤ 100
6 | Cc1cn2cc(-c3ccc4nc(N(C)C5CC6CCC(C5)N6)sc4n3)cc(F)c2n1 (stereo not drawn) [Compound 277, N-[(3-exo)-8-azabicyclo[3.2.1]oct-3-yl]-5-(8-fluoro-2-methylimidazo[1,2-a]pyridin-6-yl)-N-methyl[1,3]thiazolo[5,4-b]pyridin-2-amine] | 100 to 500
7 | CN(c1nc2ccc(-c3cc(C#N)c4nn(C)cc4c3)nc2s1)C1CC2CCC(C1)N2 (stereo not drawn) [Compound 278, 5-{2-[(3-exo)-8-azabicyclo[3.2.1]oct-3-yl(methyl)amino][1,3]thiazolo[5,4-b]pyridin-5-yl}-2-methyl-2H-indazole-7-carbonitrile] | ≤ 100
8 | Cc1cn2cc(-c3ccc4nc(N(C)C5CC6CCCC(C5)N6)sc4n3)cc(C#N)c2n1 (stereo not drawn) [Compound 279, 6-{2-[(3-exo)-9-azabicyclo[3.3.1]non-3-yl(methyl)amino][1,3]thiazolo[5,4-b]pyridin-5-yl}-2-methylimidazo[1,2-a]pyridine-8-carbonitrile] | ≤ 100
9 | Cc1cn2cc(-c3ccc4nc(N(C)C5CC6CCCC(C5)N6)sc4n3)cc(F)c2n1 (stereo not drawn) [Compound 280, N-[(3-exo)-9-azabicyclo[3.3.1]non-3-yl]-5-(8-fluoro-2-methylimidazo[1,2-a]pyridin-6-yl)-N-methyl[1,3]thiazolo[5,4-b]pyridin-2-amine] | ≤ 100
10 | CN(c1nc2ccc(-c3cc(C#N)c4nn(C)cc4c3)nc2s1)C1CC2CCCC(C1)N2 (stereo not drawn) [Compound 281, 5-{2-[(3-exo)-9-azabicyclo[3.3.1]non-3-yl(methyl)amino][1,3]thiazolo[5,4-b]pyridin-5-yl}-2-methyl-2H-indazole-7-carbonitrile] | ≤ 100
11 | CN(c1nc2nnc(-c3ccc(-c4cn[nH]c4)cc3O)cc2s1)C1CCNCC1 [Compound 282, 2-{6-[methyl(piperidin-4-yl)amino][1,3]thiazolo[4,5-c]pyridazin-3-yl}-5-(1H-pyrazol-4-yl)phenol] | ≤ 100
12 | CN1CCC(N(C)c2nc3nnc(-c4ccc(-c5cn[nH]c5)cc4O)cc3s2)CC1 [Compound 283, 2-{6-[methyl(1-methylpiperidin-4-yl)amino][1,3]thiazolo[4,5-c]pyridazin-3-yl}-5-(1H-pyrazol-4-yl)phenol] | 500 to 1000
13 | Cc1cn2cc(-c3ncc4nc(N(C)C5CC6(C)CCC(C)(C5)N6)sc4n3)cc(F)c2n1 [Compound 284, N-[(1R,3s,5S)-1,5-dimethyl-8-azabicyclo[3.2.1]octan-3-yl]-5-(8-fluoro-2-methylimidazo[1,2-a]pyridin-6-yl)-N-methyl[1,3]thiazolo[5,4-d]pyrimidin-2-amine] | ≤ 100
14 | Cc1cn2cc(-c3cc4sc(N(C)C5CC6(C)CCC(C)(C5)N6)nc4cn3)cc(C#N)c2n1 [Compound 285, 6-(2-{[(1R,3s,5S)-1,5-dimethyl-8-azabicyclo[3.2.1]octan-3-yl](methyl)amino}[1,3]thiazolo[4,5-c]pyridin-6-yl)-2-methylimidazo[1,2-a]pyridine-8-carbonitrile] | ≤ 100
15 | Cc1cn2cc(-c3cc4sc(N(C)C5CC6(C)CCC(C)(C5)N6)nc4cn3)cc(F)c2n1 [Compound 286, N-[(1R,3s,5S)-1,5-dimethyl-8-azabicyclo[3.2.1]octan-3-yl]-6-(8-fluoro-2-methylimidazo[1,2-a]pyridin-6-yl)-N-methyl[1,3]thiazolo[4,5-c]pyridin-2-amine] | ≤ 100
16 | CN(c1nc2cnc(-c3cc(C#N)c4nn(C)cc4c3)cc2s1)C1CC2(C)CCC(C)(C1)N2 [Compound 287, 5-(2-{[(1R,3s,5S)-1,5-dimethyl-8-azabicyclo[3.2.1]octan-3-yl](methyl)amino}[1,3]thiazolo[4,5-c]pyridin-6-yl)-2-methyl-2H-indazole-7-carbonitrile] | ≤ 100
17 | Cc1cn2cc(-c3cnc4nc(N(C)C5CCNCC5)sc4n3)cc(C)c2n1 [Compound 288, 6-(2,8-dimethylimidazo[1,2-a]pyridin-6-yl)-N-methyl-N-(piperidin-4-yl)[1,3]thiazolo[4,5-b]pyrazin-2-amine] | 100 to 500
18 | CN(c1nc2cnc(-c3cc(F)c4nn(C)cc4c3)nc2s1)C1CC2(C)CC[C@](C)(C1)N2 (stereo partly drawn) [Compound 289, N-[(1R)-1,5-dimethyl-8-azabicyclo[3.2.1]octan-3-yl]-5-(7-fluoro-2-methyl-2H-indazol-5-yl)-N-methyl[1,3]thiazolo[5,4-d]pyrimidin-2-amine] | ≤ 100
19 | Cc1nc2c(C#N)cc(-c3ncc4nc(N(C)C5CC6(C)CC[C@](C)(C5)N6)sc4n3)cc2o1 (stereo partly drawn) [Compound 290, 6-(2-{[(1R)-1,5-dimethyl-8-azabicyclo[3.2.1]octan-3-yl](methyl)amino}[1,3]thiazolo[5,4-d]pyrimidin-5-yl)-2-methyl-1,3-benzoxazole-4-carbonitrile] | ≤ 100
20 | Cc1cn2cc(-c3ccc4nc(N(C)C5CC6(C)CCC(C)(C5)N6)sc4n3)cc(C#N)c2n1 [Compound 291, 6-(2-{[(1R,3s,5S)-1,5-dimethyl-8-azabicyclo[3.2.1]octan-3-yl](methyl)amino}[1,3]thiazolo[5,4-b]pyridin-5-yl)-2-methylimidazo[1,2-a]pyridine-8-carbonitrile] | ≤ 100
21 | Cc1cn2cc(-c3ccc4nc(N(C)C5CC6(C)CCC(C)(C5)N6)sc4n3)cc(F)c2n1 [Compound 292, N-[(1R,3s,5S)-1,5-dimethyl-8-azabicyclo[3.2.1]octan-3-yl]-5-(8-fluoro-2-methylimidazo[1,2-a]pyridin-6-yl)-N-methyl[1,3]thiazolo[5,4-b]pyridin-2-amine] | ≤ 100
22 | CN(c1nc2ccc(-c3cc(C#N)c4nn(C)cc4c3)nc2s1)C1CC2(C)CCC(C)(C1)N2 [Compound 293, 5-(2-{[(1R,3s,5S)-1,5-dimethyl-8-azabicyclo[3.2.1]octan-3-yl](methyl)amino}[1,3]thiazolo[5,4-b]pyridin-5-yl)-2-methyl-2H-indazole-7-carbonitrile] | ≤ 100
23 | CN(c1nc2ccc(-c3cc(F)c4nn(C)cc4c3)nc2s1)C1CC2(C)CCC(C)(C1)N2 [Compound 294, N-[(1R,3s,5S)-1,5-dimethyl-8-azabicyclo[3.2.1]octan-3-yl]-5-(7-fluoro-2-methyl-2H-indazol-5-yl)-N-methyl[1,3]thiazolo[5,4-b]pyridin-2-amine] | 100 to 500
24 | CN(c1nc2ccc(-c3cc(F)c4nn(C)cc4c3)nc2s1)C1CC2CCCC(C1)N2 (stereo not drawn) [Compound 295, N-(9-azabicyclo[3.3.1]nonan-3-yl)-5-(7-fluoro-2-methyl-2H-indazol-5-yl)-N-methyl[1,3]thiazolo[5,4-b]pyridin-2-amine] | 100 to 500
25 | Cc1cn2cc(-c3cc4sc(N(C)C5CC(C)(C)NC(C)(C)C5)nc4cn3)nc2c(C)n1 [Compound 296, 6-(6,8-dimethylimidazo[1,2-a]pyrazin-2-yl)-N-methyl-N-(2,2,6,6-tetramethylpiperidin-4-yl)[1,3]thiazolo[4,5-c]pyridin-2-amine] | ≤ 100
26 | Cc1cn2cc(-c3cc4sc(N(C)C5CC(C)(C)NC(C)(C)C5)nc4cn3)cc2c(C)n1 [Compound 297, 6-(1,3-dimethylpyrrolo[1,2-a]pyrazin-7-yl)-N-methyl-N-(2,2,6,6-tetramethylpiperidin-4-yl)[1,3]thiazolo[4,5-c]pyridin-2-amine] | ≤ 100
27 | CN(c1nc2cnc(-c3cc(F)c4nn(C)cc4c3)cc2s1)C1CC2(C)CCC(C)(C1)N2 [Compound 298, N-[(1R,3s,5S)-1,5-dimethyl-8-azabicyclo[3.2.1]octan-3-yl]-6-(7-fIuoro-2-methyl-2H-indazol-5-yl)-N-methyl[1,3]thiazolo[4,5-c]pyridin-2-amine] | ≤ 100
28 | Cc1cn2cc(-c3cc4sc(N(C)C5CC6(C)CCC(C)(C5)N6)nc4cn3)cc(C)c2n1 [Compound 299, N-[(1R,3s,5S)-1,5-dimethyl-8-azabicyclo[3.2.1]octan-3-yl]-6-(2,8-dimethylimidazo[1,2-a]pyridin-6-yl)-N-methyl[1,3]thiazolo[4,5-c]pyridin-2-amine] | ≤ 100
29 | Cc1cn2cc(-c3cc4sc(N(C)C5CC6(C)CCC(C)(C5)N6)nc4cn3)ccc2n1 [Compound 300, N-[(1R,3s,5S)-1,5-dimethyl-8-azabicyclo[3.2.1]octan-3-yl]-N-methyl-6-(2-methylimidazo[1,2-a]pyridin-6-yl)[1,3]thiazolo[4,5-c]pyridin-2-amine] | ≤ 100
30 | Cc1nc2c(C#N)cc(-c3cc4sc(N(C)C5CC6(C)CCC(C)(C5)N6)nc4cn3)cc2o1 [Compound 301, 6-(2-{[(1R,3s,5S)-1,5-dimethyl-8-azabicyclo[3.2.1]octan-3-yl](methyl)amino)[1,3]thiazolo[4,5-c]pyridin-6-yl)-2-methyl-1,3-benzoxazole-4-carbonitrile] | ≤ 100
